Test system: Jurkat T cells (PMA and ionomycin-induced gene expression)
Assay: mRNA sequencing of activated Jurkat T cells
Format: cell-based, human
Procedure: We then extracted RNA from these cells. Construction of the cDNA library and next-generation sequencing was performed at LAS (Gimpo, Korea). We sequenced all samples on an Illumina NextSeq 500 system with 75 paired-end reads. For the RNA sequencing analysis, reads for each sample were aligned to the human genome (GRCh37/hg19 genome assembly) using STAR 2.4.0.1[25] with default settings. We used HOMER tools to quantify and normalize the defined genes in RefSeq transcripts. FPKM normalized genes were hierarchically clustered using Cluster3.0[26]. We visualized refined data with Java Treeview (http://jtreeview.sourceforge.net). We conducted gene ontology analysis of each cluster using the DAVID web tool (https://david.ncifcrf.gov). Finally, we visualized the expression levels of target genes using the Integrative Genomics Viewer (http://software.broadinstitute.org/software/igv). The raw data were submitted to the NCBI Gene Expression Omnibus under accession number GSE185561.
Fig. 3 The CABIN1 peptide inhibits T-cell activation. a Heatmap of altered genes affected by FK506 treatment or CABIN1 peptide expression upon T-cell activation. b Gene Ontology analysis of cluster III. c mRNA expression levels of genes included in cluster III. d qRT-PCR data of genes in c. The experiment was independently repeated at least three times, and the data are presented as the mean ± standard deviation. Statistical differences were determined using two-tailed Student’s t-test. *p < 0.05, **p < 0.01, ***p < 0.001, NC negative control.

C=CC[C@@H]1/C=C(\C)C[C@H](C)C[C@H](OC)[C@H]2O[C@@](O)(C(=O)C(=O)N3CCCC[C@H]3C(=O)O[C@H](/C(C)=C/[C@@H]3CC[C@@H](O)[C@H](OC)C3)[C@H](C)[C@@H](O)CC1=O)[C@H](C)C[C@@H]2OC [FK506, reference compound]
CD27 and CD70 expression (Jurkat, PMA and ionomycin 8 h): repressed
RNA levels of T-cell activation markers (IL2, IL3, NFATC1, CCL4, CCL20, CXCL8) (Jurkat, PMA and ionomycin 8 h): reduced the RNA levels
TM4SF1 expression (P+I 8 h, NC 0, NC_P+I 3.268): 0.439 FPKM
CD200 expression (P+I 8 h, NC 0, NC_P+I 3.759): 0 FPKM
ZP4 expression (P+I 8 h, NC 0, NC_P+I 6.38): 0.462 FPKM
CCL3L1 expression (P+I 8 h, NC 0, NC_P+I 6.448): 0 FPKM
CCL3L3 expression (P+I 8 h, NC 0, NC_P+I 6.524): 0 FPKM
CCL1 expression (P+I 8 h, NC 0, NC_P+I 9.86): 0 FPKM
NR4A2 expression (P+I 8 h, NC 0, NC_P+I 10.173): 0.04 FPKM
CCL4L2 expression (P+I 8 h, NC 0, NC_P+I 12.758): 0.087 FPKM
CCL4L1 expression (P+I 8 h, NC 0, NC_P+I 13.27): 0.087 FPKM
CSF2 expression (P+I 8 h, NC 0, NC_P+I 23.497): 0 FPKM
XCL1 expression (P+I 8 h, NC 0, NC_P+I 49.113): 0 FPKM
CCL3 expression (P+I 8 h, NC 0, NC_P+I 52.239): 0 FPKM
CCL20 expression (P+I 8 h, NC 0, NC_P+I 59.393): 0 FPKM
IL3 expression (P+I 8 h, NC 0, NC_P+I 229.054): 0.062 FPKM
CCL4 expression (P+I 8 h, NC 0, NC_P+I 247.287): 0 FPKM
IL2 expression (P+I 8 h, NC 0, NC_P+I 397.807): 0.287 FPKM
C3 expression (P+I 8 h, NC 0.006, NC_P+I 3.907): 0.489 FPKM
TNS3 expression (P+I 8 h, NC 0.008, NC_P+I 13.196): 0.678 FPKM
PLS3 expression (P+I 8 h, NC 0.019, NC_P+I 4.717): 0.052 FPKM
CREB5 expression (P+I 8 h, NC 0.031, NC_P+I 4.533): 0.577 FPKM
IRF4 expression (P+I 8 h, NC 0.034, NC_P+I 8.439): 0.423 FPKM
CXCL8 expression (P+I 8 h, NC 0.037, NC_P+I 26.755): 0.937 FPKM
SLAMF1 expression (P+I 8 h, NC 0.042, NC_P+I 5.663): 0.217 FPKM
TNFSF14 expression (P+I 8 h, NC 0.045, NC_P+I 69.958): 1.023 FPKM
IL21R-AS1 expression (P+I 8 h, NC 0.048, NC_P+I 23.616): 1.927 FPKM
XCL2 expression (P+I 8 h, NC 0.056, NC_P+I 70.747): 0 FPKM
LIF expression (P+I 8 h, NC 0.063, NC_P+I 3.697): 0.143 FPKM
SHC4 expression (P+I 8 h, NC 0.069, NC_P+I 4.391): 0.663 FPKM
RGS16 expression (P+I 8 h, NC 0.077, NC_P+I 29.102): 1.172 FPKM
IL21R expression (P+I 8 h, NC 0.1, NC_P+I 34.712): 2.244 FPKM
CRTAM expression (P+I 8 h, NC 0.104, NC_P+I 100.175): 3.325 FPKM
ZNF704 expression (P+I 8 h, NC 0.107, NC_P+I 4.985): 0.014 FPKM
NTRK1 expression (P+I 8 h, NC 0.167, NC_P+I 7.941): 0.836 FPKM
PHEX expression (P+I 8 h, NC 0.188, NC_P+I 17.377): 0.213 FPKM
SORBS1 expression (P+I 8 h, NC 0.196, NC_P+I 5.08): 0.4 FPKM
TIAM2 expression (P+I 8 h, NC 0.255, NC_P+I 4.095): 0.27 FPKM
CRIM1 expression (P+I 8 h, NC 0.268, NC_P+I 3.029): 0.305 FPKM
SERPINB2 expression (P+I 8 h, NC 0.28, NC_P+I 85.882): 2.905 FPKM
CCND2 expression (P+I 8 h, NC 0.321, NC_P+I 6.436): 0.558 FPKM
CXCR3 expression (P+I 8 h, NC 0.604, NC_P+I 14.322): 0.503 FPKM
ISM1 expression (P+I 8 h, NC 0.798, NC_P+I 56.893): 0.726 FPKM
C10orf54 expression (P+I 8 h, NC 0.84, NC_P+I 7.506): 0.382 FPKM
CSF1 expression (P+I 8 h, NC 0.848, NC_P+I 13.43): 1.706 FPKM
SLC35E4 expression (P+I 8 h, NC 0.887, NC_P+I 9.069): 0.952 FPKM
ZNF827 expression (P+I 8 h, NC 0.975, NC_P+I 3.401): 1.521 FPKM
CD70 expression (P+I 8 h, NC 1.101, NC_P+I 61.146): 3.005 FPKM
PAM expression (P+I 8 h, NC 1.154, NC_P+I 5.577): 1.483 FPKM
FOXO1 expression (P+I 8 h, NC 1.167, NC_P+I 8.247): 1.77 FPKM
IRF8 expression (P+I 8 h, NC 1.168, NC_P+I 14.813): 1.19 FPKM
SCHIP1 expression (P+I 8 h, NC 1.25, NC_P+I 3.933): 1.535 FPKM
FOSL2 expression (P+I 8 h, NC 1.294, NC_P+I 7.508): 2.204 FPKM
TNFSF9 expression (P+I 8 h, NC 1.393, NC_P+I 7.107): 2.568 FPKM
IQCJ-SCHIP1 expression (P+I 8 h, NC 1.402, NC_P+I 4.253): 1.657 FPKM
STAT5A expression (P+I 8 h, NC 1.417, NC_P+I 9.105): 3.347 FPKM
TDRD9 expression (P+I 8 h, NC 1.428, NC_P+I 25.902): 1.245 FPKM
LOC729603 expression (P+I 8 h, NC 1.468, NC_P+I 5.071): 2.179 FPKM
PDGFA expression (P+I 8 h, NC 1.497, NC_P+I 26.809): 3.25 FPKM
PHACTR2 expression (P+I 8 h, NC 1.659, NC_P+I 9.467): 2.927 FPKM
CABP1 expression (P+I 8 h, NC 1.702, NC_P+I 5.834): 1.201 FPKM
POU2AF1 expression (P+I 8 h, NC 1.84, NC_P+I 36.298): 2.274 FPKM
SPRY1 expression (P+I 8 h, NC 2.079, NC_P+I 12.391): 4.074 FPKM
GFOD1 expression (P+I 8 h, NC 2.283, NC_P+I 12.861): 4.187 FPKM
DSTYK expression (P+I 8 h, NC 2.356, NC_P+I 7.198): 3.501 FPKM
FMNL2 expression (P+I 8 h, NC 2.395, NC_P+I 6.813): 2.726 FPKM
ADORA2A expression (P+I 8 h, NC 2.492, NC_P+I 11.633): 0.998 FPKM
CD27 expression (P+I 8 h, NC 2.525, NC_P+I 27.462): 3.098 FPKM
TNFRSF4 expression (P+I 8 h, NC 2.597, NC_P+I 31.683): 2.933 FPKM
REL expression (P+I 8 h, NC 2.654, NC_P+I 20.219): 4.749 FPKM
JAK2 expression (P+I 8 h, NC 2.788, NC_P+I 26.566): 5.248 FPKM
LRRC8B expression (P+I 8 h, NC 2.89, NC_P+I 28.699): 3.555 FPKM
NPDC1 expression (P+I 8 h, NC 3.008, NC_P+I 8.759): 4.328 FPKM
CD27-AS1 expression (P+I 8 h, NC 3.088, NC_P+I 14.958): 5.11 FPKM
CST7 expression (P+I 8 h, NC 3.315, NC_P+I 14.15): 2.338 FPKM
TAGAP expression (P+I 8 h, NC 3.351, NC_P+I 128.498): 4.352 FPKM
CD55 expression (P+I 8 h, NC 3.587, NC_P+I 39.451): 6.015 FPKM
GTDC1 expression (P+I 8 h, NC 3.595, NC_P+I 10.378): 4.629 FPKM
KCNK5 expression (P+I 8 h, NC 3.84, NC_P+I 14.865): 3.906 FPKM
MYO1D expression (P+I 8 h, NC 4.114, NC_P+I 11.118): 4.59 FPKM
RDH10 expression (P+I 8 h, NC 4.125, NC_P+I 19.889): 5.856 FPKM
COL27A1 expression (P+I 8 h, NC 4.149, NC_P+I 17.216): 4.463 FPKM
PLK3 expression (P+I 8 h, NC 4.432, NC_P+I 14.807): 5.257 FPKM
NFATC1 expression (P+I 8 h, NC 4.511, NC_P+I 15.287): 3.793 FPKM
ASAP1 expression (P+I 8 h, NC 4.678, NC_P+I 18.37): 7.765 FPKM
GRK5 expression (P+I 8 h, NC 5.451, NC_P+I 21.464): 8.481 FPKM
CCDC64 expression (P+I 8 h, NC 5.477, NC_P+I 33.545): 10.044 FPKM
ATG14 expression (P+I 8 h, NC 5.727, NC_P+I 30.239): 7.863 FPKM
PELI1 expression (P+I 8 h, NC 5.755, NC_P+I 16.085): 8.175 FPKM
ARHGEF3 expression (P+I 8 h, NC 6.146, NC_P+I 31.337): 8.637 FPKM
PKIA expression (P+I 8 h, NC 6.444, NC_P+I 49.019): 13.962 FPKM
LTBP4 expression (P+I 8 h, NC 7.304, NC_P+I 33.466): 8.427 FPKM
LAMP3 expression (P+I 8 h, NC 8.064, NC_P+I 31.61): 6.412 FPKM
LAX1 expression (P+I 8 h, NC 8.344, NC_P+I 24): 8.052 FPKM
PTPN22 expression (P+I 8 h, NC 8.928, NC_P+I 45.38): 6.37 FPKM
VAMP1 expression (P+I 8 h, NC 9.566, NC_P+I 50.97): 14.793 FPKM
NINJ1 expression (P+I 8 h, NC 10.319, NC_P+I 76.622): 11.769 FPKM
KCNK1 expression (P+I 8 h, NC 10.828, NC_P+I 36.893): 10.967 FPKM
CD97 expression (P+I 8 h, NC 10.97, NC_P+I 49.481): 19.394 FPKM
FBXO34 expression (P+I 8 h, NC 11.735, NC_P+I 48.015): 14.612 FPKM
TBC1D20 expression (P+I 8 h, NC 11.844, NC_P+I 35.808): 17.7 FPKM
MIR6775 expression (P+I 8 h, NC 12.409, NC_P+I 50.527): 19.643 FPKM
AGK expression (P+I 8 h, NC 14.395, NC_P+I 39.056): 14.029 FPKM
FYN expression (P+I 8 h, NC 14.671, NC_P+I 58.084): 16.523 FPKM
MIR6821 expression (P+I 8 h, NC 17.553, NC_P+I 62.894): 13.626 FPKM
NDFIP1 expression (P+I 8 h, NC 19.638, NC_P+I 54.615): 22.485 FPKM
TBC1D4 expression (P+I 8 h, NC 20.739, NC_P+I 73.749): 12.549 FPKM
MAP2K3 expression (P+I 8 h, NC 21.676, NC_P+I 144.057): 41.815 FPKM
PTPN6 expression (P+I 8 h, NC 22.163, NC_P+I 77.092): 20.906 FPKM
FXYD5 expression (P+I 8 h, NC 25.643, NC_P+I 101.352): 41.346 FPKM
BCL2L1 expression (P+I 8 h, NC 31.375, NC_P+I 113.956): 39.402 FPKM
ATP6V1B2 expression (P+I 8 h, NC 33.172, NC_P+I 129.395): 50.672 FPKM
PIM3 expression (P+I 8 h, NC 37.434, NC_P+I 180.382): 42.827 FPKM
PPIF expression (P+I 8 h, NC 58.328, NC_P+I 188.301): 50.291 FPKM

— publication PMC9166766 (Experimental & Molecular Medicine, 2022)
